Values quoted from earlier work, collected in patent US20190151234A1, “STABLE LIQUID PHARMACEUTICAL FORMULATIONS OF BENDAMUSTINE” (priority 2016, published 2019).
Where two headings read alike, the source gives them in different places.

Conditions: for time stable: 0.25 mg/ml in 0.9% sodium chloride, Pharmazie 1994

In the case of `Cl.Cn1c(CCCC(=O)O)nc2cc(N(CCCl)CCCl)ccc21` [Bendamustine HCl, Bendamustine hydrochloride], the time stable (at 4° C.) is listed as 5 days, the time stable (at 23° C.) is listed as 0.38 days and the “stability in aqueous solutions” value (aqueous solutions, per U.S. Pat. Nos. 8,609,707, 9,265,831) is listed as “limited to few hours”.
